Results published in ChEMBL document CHEMBL3352097, “Small molecule inhibitors targeting activator protein 1 (AP-1)” (J Med Chem, 2014).

Key:
Transcription factor Jun [1] = target: T1, Transcription factor Jun (Homo sapiens, UniProt P05412); test: Inhibition of AP-1-mediated transcriptional activation in human Jurkat cells by luciferase reporter gene assay; format: cell-based
[2] = target: Nuclear factor NF-kappa-B complex (Homo sapiens, UniProt Q00653+P19838+Q04206); test: Inhibition of NF-kappaB-mediated transcriptional activation in human Jurkat cells by luciferase reporter gene assay; format: cell-based
Transcription factor AP1 [3] = target: T2, Transcription factor AP1 (Homo sapiens, UniProt P01100+P05412); test: Inhibition of Fos-Jun dimer formation (unknown origin) by EMSA method; format: protein-complex assay
[4] = target: Transcription factor Jun (Mus musculus) (UniProt P05627); test: Inhibition of AP-1-mediated transcriptional activation in lipopolysaccharide-stimulated mouse RAW 264.7 cells assessed ratio of luciferase activity normalized to Renilla luciferase activity by luciferase reporter gene assay
Transcription factor Jun [5] = target: T1, Transcription factor Jun; test: Inhibition of AP-1-mediated transcriptional activation in human HeLa cells at 1 ug/ml; format: cell-based
Transcription factor Jun [6] = target: T1, Transcription factor Jun; test: Inhibition of AP-1-mediated transcriptional activation in human HeLa cells at 10 ug/ml; format: cell-based
Transcription factor Jun [7] = target: T1, Transcription factor Jun; test: Inhibition of AP-1-mediated transcriptional activation in HEK293 cells by luciferase reporter gene assay; format: cell-based
Transcription factor Jun [8] = target: T1, Transcription factor Jun; test: Inhibition of AP-1 (unknown origin) binding to AP-1 oligonucleotide by gel shift assay
Transcription factor Jun [9] = target: Transcription factor Jun (Rattus norvegicus, UniProt P17325); test: Inhibition of AP-1-mediated collagenase production in IL1alpha-stimulated Lewis rat synovial cells
Transcription factor Jun [10] = target: T1, Transcription factor Jun; test: Inhibition of AP-1 (unknown origin) by FRET assay
Transcription factor AP1 [11] = target: T2, Transcription factor AP1; test: Inhibition of Fos-Jun dimer formation (unknown origin); format: protein-complex assay
Transcription factor Jun [12] = target: T1, Transcription factor Jun; test: Inhibition of AP-1 (unknown origin) expressed in TPA-stimulated mouse NIH3T3 cells by luciferase reporter gene assay; format: cell-based
Transcription factor Jun [13] = target: T1, Transcription factor Jun; test: Inhibition of AP-1 bZIP domain DNA binding activity (unknown origin) by ELISA

Sequence of Nuclear factor NF-kappa-B complex (P19838 1-433 limits assumed): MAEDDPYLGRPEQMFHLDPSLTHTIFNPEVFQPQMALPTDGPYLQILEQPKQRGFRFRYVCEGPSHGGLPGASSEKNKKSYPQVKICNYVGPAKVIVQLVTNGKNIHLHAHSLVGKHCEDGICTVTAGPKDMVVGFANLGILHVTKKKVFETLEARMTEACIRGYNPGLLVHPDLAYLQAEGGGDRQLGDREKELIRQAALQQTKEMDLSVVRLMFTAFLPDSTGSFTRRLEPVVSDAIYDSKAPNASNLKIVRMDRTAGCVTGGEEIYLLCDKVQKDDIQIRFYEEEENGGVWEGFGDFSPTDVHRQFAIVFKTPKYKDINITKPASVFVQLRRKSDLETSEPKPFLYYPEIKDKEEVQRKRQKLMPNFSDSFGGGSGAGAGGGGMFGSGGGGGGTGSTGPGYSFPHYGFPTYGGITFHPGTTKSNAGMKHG
Sequence of Nuclear factor NF-kappa-B complex (Q00653 1-454 limits assumed): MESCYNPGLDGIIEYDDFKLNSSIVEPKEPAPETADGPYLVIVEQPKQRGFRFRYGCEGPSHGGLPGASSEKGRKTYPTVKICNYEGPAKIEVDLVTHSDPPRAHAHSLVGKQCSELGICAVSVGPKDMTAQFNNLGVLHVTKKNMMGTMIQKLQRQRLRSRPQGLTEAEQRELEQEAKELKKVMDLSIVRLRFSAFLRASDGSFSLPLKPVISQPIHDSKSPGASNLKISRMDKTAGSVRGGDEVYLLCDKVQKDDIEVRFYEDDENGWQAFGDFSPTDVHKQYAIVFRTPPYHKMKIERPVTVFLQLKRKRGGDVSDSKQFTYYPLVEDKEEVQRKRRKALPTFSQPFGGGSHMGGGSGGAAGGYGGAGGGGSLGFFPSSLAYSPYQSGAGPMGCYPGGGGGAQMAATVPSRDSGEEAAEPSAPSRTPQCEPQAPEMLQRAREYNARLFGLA
Sequence of Nuclear factor NF-kappa-B complex (Q04206 whole entry): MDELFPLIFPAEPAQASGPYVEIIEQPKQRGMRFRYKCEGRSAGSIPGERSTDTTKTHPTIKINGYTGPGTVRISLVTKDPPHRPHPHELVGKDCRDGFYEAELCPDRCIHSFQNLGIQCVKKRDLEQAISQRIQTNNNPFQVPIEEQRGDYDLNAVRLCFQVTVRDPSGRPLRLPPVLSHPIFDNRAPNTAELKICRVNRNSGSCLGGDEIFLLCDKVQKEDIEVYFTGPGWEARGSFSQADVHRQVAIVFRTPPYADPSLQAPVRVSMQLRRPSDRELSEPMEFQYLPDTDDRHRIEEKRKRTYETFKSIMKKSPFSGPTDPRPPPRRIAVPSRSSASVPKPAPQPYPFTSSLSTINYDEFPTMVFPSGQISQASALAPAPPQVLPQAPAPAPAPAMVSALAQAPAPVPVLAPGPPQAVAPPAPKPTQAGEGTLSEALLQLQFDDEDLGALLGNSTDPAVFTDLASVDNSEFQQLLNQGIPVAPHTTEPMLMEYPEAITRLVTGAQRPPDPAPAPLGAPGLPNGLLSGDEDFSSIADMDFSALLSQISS
T2 sequence (P05412 whole entry): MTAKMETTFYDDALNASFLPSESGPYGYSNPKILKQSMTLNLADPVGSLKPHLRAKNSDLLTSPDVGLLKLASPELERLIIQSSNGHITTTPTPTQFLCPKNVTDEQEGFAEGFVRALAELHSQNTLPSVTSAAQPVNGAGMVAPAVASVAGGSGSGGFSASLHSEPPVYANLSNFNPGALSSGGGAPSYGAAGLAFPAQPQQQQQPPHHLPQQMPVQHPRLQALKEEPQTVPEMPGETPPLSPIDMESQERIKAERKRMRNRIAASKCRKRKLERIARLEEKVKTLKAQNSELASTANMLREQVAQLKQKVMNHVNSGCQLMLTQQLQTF
T2 sequence (P01100 whole entry): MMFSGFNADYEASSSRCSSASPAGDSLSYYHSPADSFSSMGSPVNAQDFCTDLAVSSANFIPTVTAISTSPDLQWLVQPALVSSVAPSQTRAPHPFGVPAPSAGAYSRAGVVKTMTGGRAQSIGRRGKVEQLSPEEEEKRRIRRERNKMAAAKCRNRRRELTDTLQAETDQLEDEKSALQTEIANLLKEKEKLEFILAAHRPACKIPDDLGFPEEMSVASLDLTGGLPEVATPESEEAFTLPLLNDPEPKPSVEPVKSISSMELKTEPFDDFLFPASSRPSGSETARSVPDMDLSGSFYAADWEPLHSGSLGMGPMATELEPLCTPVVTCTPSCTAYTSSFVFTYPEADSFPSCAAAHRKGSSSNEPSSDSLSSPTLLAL
T1 sequence (P05412 whole entry): as the sequence (P05412 whole entry) above
Sequence of Transcription factor Jun (Mus musculus) (P05627 whole entry): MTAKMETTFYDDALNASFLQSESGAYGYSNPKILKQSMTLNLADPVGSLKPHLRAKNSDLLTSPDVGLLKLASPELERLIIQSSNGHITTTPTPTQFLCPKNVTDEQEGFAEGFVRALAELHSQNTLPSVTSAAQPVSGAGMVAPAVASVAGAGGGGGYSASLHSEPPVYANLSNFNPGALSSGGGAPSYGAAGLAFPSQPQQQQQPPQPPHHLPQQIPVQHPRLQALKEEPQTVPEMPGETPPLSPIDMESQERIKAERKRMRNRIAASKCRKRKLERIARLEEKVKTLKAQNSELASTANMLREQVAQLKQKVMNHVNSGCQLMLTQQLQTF
Sequence of Transcription factor Jun (Rattus norvegicus, UniProt P17325) (P17325 whole entry): as the sequence (P05627 whole entry) above, with S48N, A193T counted along it

Q: Which IC50 (Transcription factor Jun [1]) does the source give for `O=C(Nc1cc(C(F)(F)F)cc(C(F)(F)F)c1)c1ccc(Cl)nn1` here?
A: The IC50 was 1.7 µM.

Q: What about the IC50 [2] of the same compound?
A: The IC50 was 1.7 µM.

Q: With `Cc1ccc(/C=C/C(=O)/C=C(O)/C=C/c2ccc(C)cc2)cc1` as the compound, how does the IC50 (Transcription factor AP1 [3]) read?
A: The IC50 was 8.98 µM.

Q: With `C[C@@]12CCC[C@@](C)(C(=O)O)[C@H]1CC[C@]13CC(=O)O[C@](C)(C1)[C@H](O)C[C@H]32` as the compound, how does the Ratio [4] read?
A: The Ratio was 2.73.

Q: For `O=C(Nc1cc(C(F)(F)F)cc(C(F)(F)F)c1)c1cc(Br)ccc1O`, which inhibition (Transcription factor Jun [5]) is on record?
A: Its inhibition is 48.4%.

Q: What about the inhibition (Transcription factor Jun [6]) of the same compound?
A: The inhibition was 91.2%.

Q: `Cc1nc(Nc2ccc(Cl)cc2)sc1-c1nc2ccccc2c(=O)n1-c1ccc(Cl)cc1` was tested. Which IC50 (Transcription factor Jun [7]) did it give?
A: Its IC50 is 1.2 µM.

Q: Which results are given for `CCCc1c(C(=O)O)c(O)cc2c1C(=O)c1c(O)cccc1C2=O`?
A: IC50 (Transcription factor Jun [8]): 100 µM; IC50 (Transcription factor Jun [9]): 60 µM

Q: `O=C(Nc1cc(C(F)(F)F)cc(C(F)(F)F)c1)c1cnc(F)nc1C(F)(F)F` was tested. Which IC50 [2] did it give?
A: Its IC50 is 0.4 µM.

Q: How did the IC50 (Transcription factor Jun [7]) turn out when `CC(=O)c1ccc(-n2c(-c3cc(-c4ccncc4)c(N4CCOCC4)s3)nc3ccccc3c2=O)cc1` was run?
A: Its IC50 is 5 µM.

Q: Which results are given for `O=C(Nc1cc(C(F)(F)F)cc(C(F)(F)F)c1)c1cnc(Cl)nc1C(F)(F)F`?
A: IC50 (Transcription factor Jun [1]): 0.05 µM; IC50 [2]: 0.05 µM

Q: How did the IC50 (Transcription factor AP1 [3]) turn out when `COc1cccc(/C=C/C(=O)/C=C(O)/C=C/c2cccc(OC)c2)c1` was run?
A: The IC50 was 5.4 µM.

Q: How did the IC50 (Transcription factor Jun [1]) turn out when `O=C(Nc1cc(C(F)(F)F)cc(C(F)(F)F)c1)c1cnc(Cl)nc1-c1ccccc1` was run?
A: Its IC50 is 0.4 µM.

Q: What about the IC50 [2] of the same compound?
A: The IC50 was 0.4 µM.

Q: Which EC50 (Transcription factor Jun [10]) does the source give for `CC[C@](C)(O)C(=O)O[C@H]1C(=O)O[C@@H]2C[C@H]3C(C)=CC(=O)[C@@H](O)[C@]3(C)[C@H]3[C@@]4(O)OC[C@]32[C@@H]1[C@@H](C)[C@H]4O` [GLAUCARUBINONE] here?
A: Its EC50 is 1.49 µM.

Q: How did the IC50 (Transcription factor Jun [1]) turn out when `COc1ccc2nc(-c3cccs3)nc(NN3C(=O)C=C(C)C3=O)c2c1` was run?
A: Its IC50 is 0.003 µM.

Q: How did the Ratio [4] turn out when `C[C@@]12CCC[C@@](C)(C(=O)O)[C@H]1CC[C@@]13CC(=O)O[C@@](CO)(CC[C@H]12)C3` was run?
A: Its Ratio is 2.58.

Q: For `CCOC(=O)c1cnc(NN2C(=O)C=C(C)C2=O)nc1C(F)(F)F`, which IC50 (Transcription factor Jun [1]) is on record?
A: Its IC50 is 2 µM.

Q: For `COc1cc(CC(C)C(C)Cc2ccc(O)c(OC)c2)ccc1O` (centres undefined) [DIHYDROGUAIARETIC ACID], which IC50 (Transcription factor AP1 [11]) is on record?
A: The IC50 was 0.21 µM.

Q: How did the Ratio [4] turn out when `C[C@@]12CC[C@@H]3[C@@](CC[C@H]4[C@@]3(C)CCC[C@@]4(C)C(=O)O)(CC(=O)O1)C2` was run?
A: Its Ratio is 2.38.

Q: Which Ratio [4] does the source give for `CC1=CC[C@@H]2[C@](CC#N)(CC[C@H]3[C@@]2(C)CCC[C@@]3(C)C(=O)O)C1` here?
A: Its Ratio is 2.22.

Q: `O=C1Nc2cc(C(F)(F)F)ccc2Nc2nc(Cl)ncc21` was tested. Which IC50 (Transcription factor Jun [1]) did it give?
A: The IC50 was 10 µM.

Q: How did the IC50 (Transcription factor Jun [1]) turn out when `Cc1nc(Cl)ncc1C(=O)Nc1cc(Cl)cc(Cl)c1` was run?
A: Its IC50 is 0.5 µM.

Q: Which IC50 (Transcription factor AP1 [11]) does the source give for `CC(Cc1ccc(O)c(O)c1)C(C)Cc1ccc(O)c(O)c1` (centres undefined) [NORDIHYDROGUAIARETIC ACID] here?
A: The IC50 was 0.0079 µM.

Q: With `Cc1cc(C(=O)Nc2ccc(C(F)(F)F)cc2C(F)(F)F)nc(Cl)n1` as the compound, how does the IC50 (Transcription factor Jun [1]) read?
A: Its IC50 is greater than 10 µM.

Q: For `CNc1nc(C)c(-c2nc3ccccc3c(=O)n2-c2ccccc2C)s1`, which IC50 (Transcription factor Jun [7]) is on record?
A: The IC50 was 5.5 µM.

Q: With `COC1=C(C)[C@@H]2CC(=O)O[C@@H]3C[C@H]4[C@H](C)[C@@H](O)[C@H](O)C(=O)[C@]4(C)[C@@H](C1=O)[C@@]32C` [NOTHOSPONDIN] as the compound, how does the EC50 (Transcription factor Jun [10]) read?
A: The EC50 was 0.13 µM.

Q: Which results are given for `O=C(Nc1cc(Cl)cc(Cl)c1)c1cc(Cl)ccc1O`?
A: inhibition (Transcription factor Jun [5]): 22.7%; inhibition (Transcription factor Jun [6]): 74.8%

Q: Which IC50 (Transcription factor Jun [12]) does the source give for `O=C(O)CCc1cc(C(=O)c2ccc(OC3CCCC3)cc2O)ccc1OCc1ccc2c(O)noc2c1` here?
A: Its IC50 is 10 µM.

Q: What about the IC50 (Transcription factor Jun [13]) of the same compound?
A: The IC50 was 10 µM.

Q: Which IC50 [2] does the source give for `O=C(Nc1cc(C(F)(F)F)cc(C(F)(F)F)c1)c1cnc(Cl)nc1Cl` here?
A: Its IC50 is 0.6 µM.

Q: Which IC50 (Transcription factor Jun [1]) does the source give for `CC1=CC(=O)N(Nc2ncc(C(=O)c3ccccc3)c(C(F)(F)F)n2)C1=O` here?
A: Its IC50 is 0.098 µM.

Q: For `CCOC(=O)c1cnc(C(F)(F)F)nc1NN1C(=O)C=C(C)C1=O`, which IC50 (Transcription factor Jun [1]) is on record?
A: Its IC50 is 1 µM.

Q: What about the IC50 [2] of the same compound?
A: The IC50 was 1 µM.

Q: How did the IC50 (Transcription factor Jun [1]) turn out when `O=C(Nc1cc(C(F)(F)F)cc(C(F)(F)F)c1)c1cnc(Cl)cn1` was run?
A: Its IC50 is 4 µM.

Q: And the IC50 [2]?
A: The IC50 was 4 µM.

Q: What does the source list for `CCOC(=O)c1cnc(-c2cccs2)nc1NN1C(=O)C=C(C)C1=O`?
A: IC50 (Transcription factor Jun [1]): 0.02 µM; IC50 [2]: 0.02 µM

Q: Which IC50 (Transcription factor Jun [1]) does the source give for `O=C(c1cnc(Cl)nc1C(F)(F)F)N1COCc2ccc(C(F)(F)F)cc21` here?
A: The IC50 was 10 µM.

Q: `C[C@@]12CC[C@@H]3[C@@](C/C1=N\O)(C2)[C@H](O)C[C@H]1[C@@]3(C)[C@@H](O)CC[C@@]1(C)C(=O)O` was tested. Which Ratio [4] did it give?
A: The Ratio was 2.69.

Q: `C[C@@]12CC[C@@H]3[C@@](CC[C@H]4[C@@]3(C)[C@@H](O)CC[C@@]4(C)C(=O)O)(COC1=O)C2` was tested. Which Ratio [4] did it give?
A: Its Ratio is 2.66.
